# Test results as given in PubChem BioAssay (NCI).
#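 These data come from cells grown in 96-well plates and exposed to compound for 48 hours at five concentrations. At the TGI there is no net growth.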
# Tests used:
# Experiment in all cases: NCI tumour cell line growth inhibition, 48 h
# MALME-3M melanoma = system: MALME-3M melanoma
# SN12C renal = system: SN12C renal
# BT-549 breast = system: BT-549 breast
# OVCAR-3 ovarian = system: OVCAR-3 ovarian
# SW-620 colon = system: SW-620 colon
# HCT-116 colon = system: HCT-116 colon
# UACC-257 melanoma = system: UACC-257 melanoma
# HS 578T breast = system: HS 578T breast
# MOLT-4 leukemia = system: MOLT-4 leukemia
# HOP-62 NSCLC = system: HOP-62 NSCLC
# MDA-MB-231 breast = system: MDA-MB-231 breast
# CCRF-CEM leukemia = system: CCRF-CEM leukemia
# DU-145 prostate = system: DU-145 prostate
# SF-268 CNS = system: SF-268 CNS
# K-562 leukemia = system: K-562 leukemia
# NCI-H522 lung = system: NCI-H522 lung
# SR leukemia = system: SR leukemia
# MDA-MB-435 = system: MDA-MB-435
# PC-3 prostate = system: PC-3 prostate
# HT29 colon = system: HT29 colon
# SF-295 CNS = system: SF-295 CNS
# SK-MEL-28 melanoma = system: SK-MEL-28 melanoma
# SF-539 CNS = system: SF-539 CNS
# SK-MEL-5 melanoma = system: SK-MEL-5 melanoma
# A549 NSCLC = system: A549 NSCLC
# NCI/ADR-RES ovarian = system: NCI/ADR-RES ovarian
# IGROV1 ovarian = system: IGROV1 ovarian
# SK-MEL-2 melanoma = system: SK-MEL-2 melanoma
# NCI-H226 lung = system: NCI-H226 lung
# NCI-H23 lung = system: NCI-H23 lung
# U251 CNS = system: U251 CNS
# CAKI-1 renal = system: CAKI-1 renal
# UACC-62 melanoma = system: UACC-62 melanoma
# LOX IMVI melanoma = system: LOX IMVI melanoma
# TK-10 renal = system: TK-10 renal
# SNB-75 CNS = system: SNB-75 CNS
# MCF7 breast = system: MCF7 breast
# KM12 colon = system: KM12 colon
# ACHN renal = system: ACHN renal
# T-47D breast = system: T-47D breast
# HL-60(TB) leukemia = system: HL-60(TB) leukemia
# EKVX NSCLC = system: EKVX NSCLC
# NCI-H460 lung = system: NCI-H460 lung
# M14 melanoma = system: M14 melanoma
# OVCAR-4 ovarian = system: OVCAR-4 ovarian
# SNB-19 CNS = system: SNB-19 CNS
# OVCAR-8 ovarian = system: OVCAR-8 ovarian
# SK-OV-3 ovarian = system: SK-OV-3 ovarian
# OVCAR-5 ovarian = system: OVCAR-5 ovarian
# HOP-92 NSCLC = system: HOP-92 NSCLC
# RPMI-8226 leukemia = system: RPMI-8226 leukemia
# A498 renal = system: A498 renal
# MDA-N = system: MDA-N
# HCT-15 colon = system: HCT-15 colon
# 786-0 renal = system: 786-0 renal
# COLO 205 colon = system: COLO 205 colon
# UO-31 renal = system: UO-31 renal
# RXF 393 renal = system: RXF 393 renal
# DMS 273 small cell lung = system: DMS 273 small cell lung
# LXFL 529 NSCLC = system: LXFL 529 NSCLC
# DMS 114 small cell lung = system: DMS 114 small cell lung
# KM20L2 colon = system: KM20L2 colon
# HCC-2998 colon = system: HCC-2998 colon
# XF 498 CNS = system: XF 498 CNS
# SNB-78 CNS = system: SNB-78 CNS
# M19-MEL melanoma = system: M19-MEL melanoma
# DLD-1 colon = system: DLD-1 colon
structure (smiles),measurement,setting,value
CCOC(=O)C1=C(O)C2C3CC4C2C(O)=C(C(=O)OCC)C2C1C3C42 (centres undefined),TGI,MALME-3M melanoma,> 100 µM
same,TGI,SN12C renal,> 100 µM
same,TGI,BT-549 breast,> 100 µM
same,TGI,OVCAR-3 ovarian,> 100 µM
same,TGI,SW-620 colon,> 100 µM
same,TGI,HCT-116 colon,> 100 µM
same,TGI,UACC-257 melanoma,> 100 µM
same,TGI,HS 578T breast,> 100 µM
same,TGI,MOLT-4 leukemia,> 100 µM
same,TGI,HOP-62 NSCLC,> 100 µM
same,TGI,MDA-MB-231 breast,> 100 µM
same,TGI,CCRF-CEM leukemia,> 100 µM
same,TGI,DU-145 prostate,> 100 µM
same,TGI,SF-268 CNS,> 100 µM
same,TGI,K-562 leukemia,> 100 µM
same,TGI,NCI-H522 lung,> 100 µM
same,TGI,SR leukemia,> 100 µM
same,TGI,MDA-MB-435,> 100 µM
same,TGI,PC-3 prostate,> 100 µM
same,TGI,HT29 colon,> 100 µM
same,TGI,SF-295 CNS,> 100 µM
same,TGI,SK-MEL-28 melanoma,> 100 µM
same,TGI,SF-539 CNS,> 100 µM
same,TGI,SK-MEL-5 melanoma,> 100 µM
same,TGI,A549 NSCLC,> 100 µM
same,TGI,NCI/ADR-RES ovarian,35.2 µM
same,TGI,IGROV1 ovarian,> 100 µM
same,TGI,SK-MEL-2 melanoma,> 100 µM
same,TGI,NCI-H226 lung,> 100 µM
same,TGI,NCI-H23 lung,> 100 µM
same,TGI,U251 CNS,> 100 µM
same,TGI,CAKI-1 renal,> 100 µM
same,TGI,UACC-62 melanoma,> 100 µM
same,TGI,LOX IMVI melanoma,> 100 µM
same,TGI,TK-10 renal,> 100 µM
same,TGI,SNB-75 CNS,> 100 µM
same,TGI,MCF7 breast,> 100 µM
same,TGI,KM12 colon,> 100 µM
same,TGI,ACHN renal,> 100 µM
same,TGI,T-47D breast,> 100 µM
same,TGI,HL-60(TB) leukemia,> 100 µM
same,TGI,EKVX NSCLC,> 100 µM
same,TGI,NCI-H460 lung,> 100 µM
same,TGI,M14 melanoma,> 100 µM
same,TGI,OVCAR-4 ovarian,> 100 µM
same,TGI,SNB-19 CNS,> 100 µM
same,TGI,OVCAR-8 ovarian,> 100 µM
same,TGI,SK-OV-3 ovarian,> 100 µM
same,TGI,OVCAR-5 ovarian,> 100 µM
same,TGI,HOP-92 NSCLC,> 100 µM
same,TGI,RPMI-8226 leukemia,> 100 µM
same,TGI,A498 renal,> 100 µM
same,TGI,MDA-N,> 100 µM
same,TGI,HCT-15 colon,> 100 µM
same,TGI,786-0 renal,> 100 µM
same,TGI,COLO 205 colon,> 100 µM
same,TGI,UO-31 renal,> 100 µM
same,TGI,RXF 393 renal,> 100 µM
CC(C)(C)c1cc(C(O)(C(F)(F)F)C(F)(F)F)c2c(c1)C(C(F)(F)F)(C(F)(F)F)OC(C)(C(C)(C)C)N2 (centres undefined),TGI,MALME-3M melanoma,78.2 µM
same,TGI,SN12C renal,16.8 µM
same,TGI,OVCAR-3 ovarian,9.18 µM
same,TGI,DMS 273 small cell lung,10.8 µM
same,TGI,LXFL 529 NSCLC,14.1 µM
same,TGI,SW-620 colon,44.6 µM
same,TGI,HCT-116 colon,13.4 µM
same,TGI,UACC-257 melanoma,27.4 µM
same,TGI,DMS 114 small cell lung,8.64 µM
same,TGI,MOLT-4 leukemia,7.96 µM
same,TGI,KM20L2 colon,> 100 µM
same,TGI,K-562 leukemia,12.7 µM
same,TGI,NCI-H522 lung,5.24 µM
same,TGI,SR leukemia,8.45 µM
same,TGI,HT29 colon,22.7 µM
same,TGI,SF-295 CNS,16.9 µM
same,TGI,SK-MEL-28 melanoma,28.6 µM
same,TGI,SK-MEL-5 melanoma,4.7 µM
same,TGI,A549 NSCLC,33.4 µM
same,TGI,IGROV1 ovarian,> 100 µM
same,TGI,SK-MEL-2 melanoma,17.7 µM
same,TGI,NCI-H226 lung,8.53 µM
same,TGI,NCI-H23 lung,7.41 µM
same,TGI,U251 CNS,10.9 µM
same,TGI,HCC-2998 colon,93.6 µM
same,TGI,UACC-62 melanoma,15 µM
same,TGI,SNB-75 CNS,8.96 µM
same,TGI,KM12 colon,> 100 µM
same,TGI,XF 498 CNS,4.25 µM
same,TGI,ACHN renal,12.1 µM
same,TGI,EKVX NSCLC,22.4 µM
same,TGI,NCI-H460 lung,9.25 µM
same,TGI,M14 melanoma,13.6 µM
same,TGI,OVCAR-4 ovarian,> 100 µM
same,TGI,SNB-19 CNS,> 100 µM
same,TGI,SNB-78 CNS,99 µM
same,TGI,M19-MEL melanoma,9.73 µM
same,TGI,SK-OV-3 ovarian,6.14 µM
same,TGI,OVCAR-5 ovarian,> 100 µM
same,TGI,RPMI-8226 leukemia,9.25 µM
same,TGI,HCT-15 colon,14.5 µM
same,TGI,786-0 renal,11.6 µM
same,TGI,COLO 205 colon,4.02 µM
same,TGI,DLD-1 colon,> 100 µM
same,TGI,UO-31 renal,21 µM
same,TGI,RXF 393 renal,16.2 µM
